The values that follow are results of earlier work, collected in publication PMC9063988 (JACS Au, 2022).

For this series, the system named is SARS-CoV-2 spike pseudo-lentiviral vector into A549 cells overexpressing ACE2 and TMPRSS2.

With `O=c1c2ccccc2[se]n1-c1ccccc1` [ebselen], the “inhibition of entry of SARS-CoV-2 lentivectors” value is given as “only at high IC50 with high toxicity”.
